Source: publication PMC10065791 (eLife, 2023)

Assays:
wild-type virus NL4-3 = assay: TZM infection assay (cell culture-based viral inhibition), wild-type virus; parameters: species or system HIV-1; conditions: Human immunodeficiency virus 1, NL43; wild-type NL4-3 virus; concentration at time of virus production reducing infectivity by 50%; TZM-bl readout
Procedure: PI dilutions were prepared by taking 10 µM stocked and performing a fivefold serial dilution using RPMI media (final drug concentration is […]). One dilution of drug was added to each well of a 24-well plate and repeated so each virus would have a full set of dilutions. Viruses for the assay were made by seeding 3 × 10^6 CEM cells in a 24-well plate and incubating with 250 µl of virus at 37°C for 2–3 hr before bringing the culture to 10 ml with RPMI media. After 48 hr, the medium was changed and repeated every 48 hr after until the culture had undergone CPE. Infected CEM cells were collected and diluted so that 1 ml of cells could be plated in each well containing a unique drug dilution. Then 24 hr later the virus supernatant was collected from each well followed by filtering through a […] then placed in –80°C. Viruses were thawed and added to 96-well plates in triplicate. TZM-bl cells were collected and diluted to a concentration of 2 × 10^5 cells/ml, 100 µl were added on top of the pre-plated viruses. Plates were kept in 37°C, 5% CO2 in an incubator for 48 hr. After 48 hr, the cells in the plates were lysed by removing the medium, washing two times with 100 µl PBS, and then lysed with 1× lysis buffer (made from 5× Promega Firefly Lysis Buffer). Plates were frozen for at least 24 hr and then thawed for 2 hr before analyzing with Promega Firefly Luciferase Kit on a luminometer. Data was analyzed with Prism 7 to fit sigmoidal dose–response curves.

[1] = test system: HIV-1 NL4-3 wild-type virus; assay: Selection for resistance in CEMx174 culture with escalating inhibitor, start wild-type virus, Primer ID deep sequencing; assay type: cell-based
Procedure: . The selection experiments were performed under two separate starting conditions: first when the starting virus was generated from the NL4-3 clone (this clone closely approximates the clade B consensus for the protease amino acid sequence and will be referred to as ‘wild type’), then again when the starting virus was a mixture of 26 isogenic viruses each with a single mutation associated with drug resistance in the NL4-3 background. […]. For technical reasons, only five of the selections starting with the mixture of mutants reached an inhibitor concentration as high as 400 nM and are reported here (Figure 2—figure supplement 3).
Resistance mutations selected in the protease coding domain during the escalating selective pressure of increasing PI concentration were examined at various timepoints using a next-generation sequencing (NGS) protocol that included Primer ID with the MiSeq platform ([Zhou et al., 2015]). We first examined the sequence of the most abundant variant in each of the two selection schemes present at the highest inhibitor concentration reached (Figure 2A). For those selections that reached 5 μM, 8–14 mutations were present in the most abundant variant. Typically the next two most abundant variants in the population differed by a single amino acid, and on average the three most abundant variants in the 5 μM cultures accounted for 88% of the total viral population (Figure 2—source data 1). Evolution of resistance followed two pathways, one based on I50V and one based on I84V. In three cultures, V2wt, V5wt, and V2mut (which reached either 4 or 5 μM final drug concentration; V2wt indicates the virus pool selected with UMASS-2 starting with wild-type virus), these two mutations, I84V and I50V, became linked on the same genome (Figure 2A) showing they are not mutually exclusive; […].
An aliquot of 3 × 10^6 CEMx174 cells was incubated at 37°C for 2–3 hr with 250 µl of a virus stock generated from the HIV-1 infectious molecular clone pNL4-3. The culture volume was then brought to 10 ml with RPMI medium. […] After 48 hr and every 48 hr after, the cells were pelleted by centrifugation and 10 ml of fresh medium and inhibitors were added. When the culture had undergone extensive cytopathic effect (CPE) indicative of viral replication, the supernatant medium and the cells were harvested separately and stored at –80°C. The virus-containing supernatant was used to start the next round of infection, and after several rounds at the initial concentration, the inhibitor concentration was increased 1.5-fold at each subsequent round of virus passage.
We used the PID protocol to prepare MiSeq PID libraries with multiplexed primers. Viral RNA was extracted from plasma samples using the QIAamp viral RNA mini kit (QIAGEN, Hilden, Germany). Complementary DNA (cDNA) was synthesized using a cDNA primer mixture targeting protease (PR) with a block of random nucleotides in each cDNA primer serving as the PID, and SuperScript III RT (Thermo Fisher). After two rounds of bead purification of the cDNA, we amplified the cDNA using a mixture of a forward primer that targeted the upstream coding region, followed by a second round of PCR to incorporate the Illumina adaptor sequences. Gel-purified libraries were pooled and sequenced using the MiSeq 300 base paired-end sequencing protocol (Illumina). The sequencing covered the HIV-1 PR region (HXB2 2648-2914, 3001-3257).
We used the Illumina bcl2fastq pipeline for the initial processing and constructed template consensus sequences (TCSs) with TCS pipeline version 1.33 (https://github.com/SwanstromLab/PID) ([Zhou, 2019]). We then aligned TCSs to an HXB2 reference to remove sequences not at the targeted region or that had large deletions. We used the Entropy tool at LANL (https://www.hiv.lanl.gov/content/sequence/ENTROPY/entropy.html) to calculate entropy for each specimen. The sequencing data is available at NIH Sequencing Read Archive (SRA) under BioProject ID PRJNA853351.

Q: Which results are given for `CC[C@H](C)CN(C[C@@H](O)[C@H](Cc1ccccc1)NC(=O)O[C@H]1CO[C@H]2OCC[C@H]21)S(=O)(=O)c1ccc(CO)cc1` [UMASS-3]?
A: EC50 (wild-type virus NL4-3): 9.1 ± 1 nM; Abundance of variant at the last time point ([1]; variant 10F/33F/46I/47V/50V/53L/63P/71V/76S/82I, passage 93, [PI] 5000 nM): 0.9%; Abundance of variant at the last time point ([1]; variant 10F/33F/46I/47V/50V/53L/63P/71V/76S/82I/85V/89I, passage 93, [PI] 5000 nM): 85.7%; Abundance of variant at the last time point ([1]; variant 10F/33F/46I/47V/50V/53L/63P/71V/76S/82I/85V/89I/91S, passage 93, [PI] 5000 nM): 1.1%

Q: What does the source list for `CC[C@H](C)CN(C[C@@H](O)[C@H](Cc1ccccc1)NC(=O)O[C@H]1CO[C@H]2OCC[C@H]21)S(=O)(=O)c1ccc2c(c1)OCO2` [UMASS-4]?
A: EC50 (wild-type virus NL4-3): 3.2 ± 0.4 nM; Abundance of variant at the last time point ([1]; variant 10F/11I/13V/32I/33F/43T/46L/54L/71V/82I/84V/89M/91S/92R, passage 81, [PI] 5000 nM): 87.3%; Abundance of variant at the last time point ([1]; variant 10F/11I/32I/33F/43T/46L/54L/71V/82I/84V/89M/91S, passage 81, [PI] 5000 nM): 1.3%; Abundance of variant at the last time point ([1]; variant 10F/11I/32I/33F/46L/54L/71V/82I/84V/89M/91S, passage 81, [PI] 5000 nM): 1.1%

Q: What does the source list for `CC[C@H](C)CN(C[C@@H](O)[C@H](Cc1ccccc1)NC(=O)O[C@H]1CO[C@H]2OCC[C@H]21)S(=O)(=O)c1ccc2ncsc2c1` [UMASS-5]?
A: EC50 (wild-type virus NL4-3): 4 ± 0.5 nM; Abundance of variant at the last time point ([1]; variant 10F/15V/46I/47V/50V/53L/71V/82I/84V/89T, passage 77, [PI] 5000 nM): 67.9%; Abundance of variant at the last time point ([1]; variant 10F/46I/47V/50V/53L/63P/71V/82I/84V/89M, passage 77, [PI] 5000 nM): 8.8%; Abundance of variant at the last time point ([1]; variant 10F/46I/47V/50V/53L/71V/82I/84V/89T, passage 77, [PI] 5000 nM): 10.9%

Q: How did the EC50 (wild-type virus NL4-3) turn out when `CCC(CC)CN(C[C@@H](O)[C@H](Cc1ccccc1)NC(=O)O[C@H]1CO[C@H]2OCC[C@H]21)S(=O)(=O)c1ccc(N)cc1` [UMASS-6] was run?
A: The EC50 was 5.2 ± 0.8 nM.

Q: What about the “Abundance of variant at the last time point” value (“Abundance of variant” below) ([1]; variant 10F/13V/16E/33F/46I/47A/50V/53L/71V, passage 46, [PI] 5000 nM) of the same compound?
A: The value was 2.2%.

Q: And the “Abundance of variant” value ([1]; variant 10F/13V/33F/46I/47A/50V/53L/63P/71V, passage 46, [PI] 5000 nM)?
A: The value was 42.3%.

Q: And the “Abundance of variant” value ([1]; variant 10F/13V/33F/46I/47A/50V/53L/71V, passage 46, [PI] 5000 nM)?
A: Its value is 45.1%.

Q: `CCC(CC)CN(C[C@@H](O)[C@H](Cc1ccccc1)NC(=O)O[C@H]1CO[C@H]2OCC[C@H]21)S(=O)(=O)c1ccc(OC)cc1` [UMASS-7] was tested. Which EC50 (wild-type virus NL4-3) did it give?
A: The EC50 was 3.1 ± 0.5 nM.

Q: What about the “Abundance of variant” value ([1]; variant 10F/13V/33F/46I/47V/50V/53L/54L/67Y/71V/82I, passage 76, [PI] 5000 nM) of the same compound?
A: The value was 0.2%.

Q: What about the “Abundance of variant” value ([1]; variant 10F/13V/33F/46I/47V/50V/53L/54L/71V/82I, passage 76, [PI] 5000 nM) of the same compound?
A: Its value is 94.5%.

Q: And the “Abundance of variant” value ([1]; variant 10F/13V/33F/46I/47V/50V/53L/54L/71V/82I/87K, passage 76, [PI] 5000 nM)?
A: Its value is 0.2%.

Q: Which EC50 (wild-type virus NL4-3) does the source give for `CCC(CC)CN(C[C@@H](O)[C@H](Cc1ccccc1)NC(=O)O[C@H]1CO[C@H]2OCC[C@H]21)S(=O)(=O)c1ccc2c(c1)OCO2` [UMASS-9] here?
A: The EC50 was 6.4 ± 1.2 nM.

Q: And the “Abundance of variant” value ([1]; variant 10F/13V/33F/41K/45R/46I/47V/50V/53L/54L/66F/71V/74A/76S/82I, passage 78, [PI] 5000 nM)?
A: Its value is 0.7%.

Q: And the “Abundance of variant” value ([1]; variant 10F/13V/33F/45R/46I/47V/50V/53L/54L/66F/71V/74A/76S/82I, passage 78, [PI] 5000 nM)?
A: The value was 92.3%.

Q: What about the “Abundance of variant” value ([1]; variant 10F/13V/33F/45R/46I/47V/50V/53L/54L/66F/71V/74A/76S/82I/87K, passage 78, [PI] 5000 nM) of the same compound?
A: Its value is 0.4%.
